Literature values as cited in patent publication US11712422B2, “Pharmaceutical compositions comprising activated carbon” (FERRING B.V., priority 2012, dated 2023).

c1ccc2[nH]ccc2c1 [Indole]
Log P: 2.14
